Measurements reported in patent US20250144056A1, “ANTIMICROBIAL HOST DEFENSE PEPTIDE-INDUCING COMPOSITIONS AND METHODS OF PRODUCTION AND USE THEREOF” (Board of Regents for the Oklahoma Agricultural and …, priority 2022, published 2025).
“Also recorded” adds a separate entry of the source. Each block holds one compound with its values, some of them ahead of it.

Assays:
Assay type in all cases: cell-based, chicken
AvBD9 mRNA expression = test: RT-qPCR of AvBD9 mRNA expression in HTC macrophage cells; settings: for synergy in AvBD9 induction between HMTi and HDACi: with butyrate or mocetinostat, 24 h (FIG. 7, Panel C); for synergy with butyrate in AvBD9 mRNA expression: indicated concentrations in combination with 2 mM butyrate, 24 h (FIG. 4); for induction of AvBD9 gene expression / increase in AvBD9 expression, combination with mocetinostat: 24 h (FIG. 7, Panel D); for increase in AvBD9 expression, combination with mocetinostat: 5 μM compound in combination with 2.5 μM mocetinostat
Description: (§1) Culture and stimulation of macrophages. Two different chicken macrophage cell lines, HTC (24) and HD11 (25), were kindly provided by Dr. Narayan C. Rath and Dr. Hyun Lillehoj of USDA-ARS and maintained in RPMI 1640 containing 10% heat-inactivated FBS, 100 U/ml penicillin, and 100 μg/ml streptomycin and subcultured every 3-4 days. After overnight seeding at 1.5×10^6 cells/well in 6-well cell culture plates, cells were treated with different concentrations of each compound for 24 h or with the indicated concentration of each compound for various lengths of time for dose-response and time-course experiments, respectively. To study the synergy between HMTi/DNMTi and HDACi, different concentrations of an HMTi or DNMTi were added to the cells in the presence or absence of an HDACi for 24 h, followed by RNA isolation and HDP gene expression analysis as described below. HTC cells were also stimulated with butyrate, BIX01294, or their combination for 24 h, followed by 3-h stimulation with 10 ng/ml LPS and subsequent expression analysis.
(§2) Total RNA extraction and gene expression analysis. Total RNA was extracted using RNAzol (Molecular Biology Research Center, Cincinnati, OH) according to the manufacturer's protocol. Gene expression was performed using reverse transcription-quantitative PCR (RT-qPCR) as previously described (27-29). Reverse transcription was performed with 300 ng of total RNA and Maxima® First Strand cDNA Synthesis Kit (ThermoFisher Scientific, Pittsburgh, PA). The cDNA was then diluted 10-fold with RNase-free water prior to real-time PCR using QuantiTect SYBR® Green PCR Kit (Qiagen, Valencia, CA) in 10-μl reactions using primers specific for HDP, barrier function, and inflammatory cytokine genes as described (27, 29, 30). PCR was run in CFX Connect Real-Time PCR System (Bio-Rad, Hercules, CA) using the following program: 95° C. for 10 min, followed by 40 cycles of 94° C. for 15 sec, 55° C. for 20 sec, and 72° C. for 30 sec. The specificity of PCR reactions was confirmed by the melting curve analysis. The glyceraldehyde-3-phosphate dehydrogenase (GAPDH) gene was used as the reference for data normalization. The fold changes in gene expression in the cells treated with individual compounds or in combinations were calculated relative to the cells treated with an equal volume of RPMI 1640 or DMSO using the ΔΔCt method (31).

CLDN1 = test: RT-qPCR of CLDN1 (claudin 1) in HTC cells; settings: 24 h (FIG. 8, Panel F)
Description: as §1, §2

AvBD1 = test: RT-qPCR of AvBD1 in HD11 macrophages; settings: HD11 cells, 5 μM compound with 2 mM butyrate, 24 h (FIG. 6, Panel B)
Description: (§3) Culture and stimulation of macrophages. Two different chicken macrophage cell lines, HTC (24) and HD11 (25), were kindly provided by Dr. Narayan C. Rath and Dr. Hyun Lillehoj of USDA-ARS and maintained in RPMI 1640 containing 10% heat-inactivated FBS, 100 U/ml penicillin, and 100 μg/ml streptomycin and subcultured every 3-4 days. After overnight seeding at 1.5×10^6 cells/well in 6-well cell culture plates, cells were treated with different concentrations of each compound for 24 h or with the indicated concentration of each compound for various lengths of time for dose-response and time-course experiments, respectively. […]
(§4) Total RNA extraction and gene expression analysis. […] Gene expression was performed using reverse transcription-quantitative PCR (RT-qPCR) as previously described (27-29). […] The cDNA was then diluted 10-fold with RNase-free water prior to real-time PCR using QuantiTect SYBR® Green PCR Kit (Qiagen, Valencia, CA) in 10-μl reactions using primers specific for HDP, barrier function, and inflammatory cytokine genes as described (27, 29, 30). […] The fold changes in gene expression in the cells treated with individual compounds or in combinations were calculated relative to the cells treated with an equal volume of RPMI 1640 or DMSO using the ΔΔCt method (31).

AvBD9 = test: RT-qPCR of AvBD9 in HD11 macrophages; settings: HD11 cells, 5 μM compound with 2 mM butyrate, 24 h (FIG. 6, Panel A)
Description: as §3, §4

AvBD10 = test: RT-qPCR of AvBD10 in HD11 macrophages; settings: HD11 cells, 5 μM compound with 2 mM butyrate, 24 h (FIG. 6, Panel D)
Description: as §3, §4

AvBD4 = test: RT-qPCR of AvBD4 in HD11 macrophages; settings: HD11 cells, 5 μM compound with 2 mM butyrate, 24 h (FIG. 6, Panel C)
Description: as §3, §4

AvBD9 gene promoter = test: HTC/AvBD9-luc luciferase reporter assay; settings: for activation of the AvBD9 gene promoter (relative luciferase activity): compound alone, different concentrations, 24 h (FIG. 2, Panel A); for synergy in luciferase activity with butyrate: different concentrations in combination with 2 mM butyrate, 24 h (FIG. 3)
Description: Culture and stimulation of a stable HTC/AvBD9-luc luciferase reporter cell line. A stable HTC/AvBD9-luc cell line was generated by cloning a 2.0-Kb AvBD9 gene promoter fragment into a lentiviral luciferase reporter vector, pGreenFire1-mCMV-Puro (System Biosciences, Palo Alto, CA) and then transfected into HTC cells as previously described (22). The stable cell line was maintained in RPMI 1640 containing 10% heat-inactivated FBS, 100 U/ml penicillin, 100 μg/mL streptomycin, and 0.5 μg/mL puromycin and subcultured every 3-4 days. To measure transcriptional activation of the AvBD9 gene promoter in response to different epigenetic compounds, cells were seeded at 4×10^4 cells/well in white 96-well tissue culture plates and stimulated in duplicate with different compounds individually or in combination for 24 h. An equal amount of a solvent was applied as a negative control. Luciferase activity was measured using STEADY-GLO® Luciferase Assay System (Promega, Madison, WI) on an L-Max II luminescence microplate reader (Molecular Devices, Sunnyvale, CA). Cell viabilities were assessed by adding alamarBlue Reagent (ThermoFisher, Waltham, MA) to cell culture 4 h before luciferase assay. Relative luciferase activity was determined for each well after normalization to the cell viability as previously described (22).

IL-1β = test: RT-qPCR of IL-1β in HTC cells with or without LPS
Description: as §1, §2

IL-8 = test: RT-qPCR of IL-8 in HTC cells with or without LPS
Description: as §1, §2

Compound: COc1cc2c(cc1OCCCN1CCCC1)N=C(N)C21CCC1 [A-366]
synergy in AvBD9 induction between HMTi and HDACi (AvBD9 mRNA expression): marked synergy

activation of the AvBD9 gene promoter (relative luciferase activity) (AvBD9 gene promoter): concentration-dependent activation
Compound: CCCc1cc(C)[nH]c(=O)c1CNC(=O)c1cc(-c2ccc(N3CCN(C(C)C)CC3)nc2)cc2c1cnn2C(C)C [UNC1999]
additional increase in AvBD9 expression of the butyrate combination over compound alone (AvBD9 mRNA expression; 20 μM compound + 2 mM butyrate versus 20 μM compound alone): 14 fold
increase in AvBD9 mRNA expression (AvBD9 mRNA expression; 20 μM compound alone, 24 h (FIG. 2, Panel B), peak): 259 fold
induction of AvBD9 expression (AvBD9 mRNA expression; 20 μM compound alone, 24 h (FIG. 4, Panels A, B)): 324 fold
increase in AvBD9 expression, combination with butyrate (AvBD9 mRNA expression; 20 μM compound in combination with 2 mM butyrate, 24 h (FIG. 4, Panels A, B)): 4,470 fold
synergy with butyrate in AvBD9 mRNA expression (AvBD9 mRNA expression): concentration-dependent increase
synergy in AvBD9 induction between HMTi and HDACi (AvBD9 mRNA expression): marked synergy
CLDN1 induction, combination with mocetinostat (CLDN1; 5 μM UNC1999 + 2.5 μM mocetinostat): synergistically induced
CLDN1 induction, combination with butyrate (CLDN1; 5 μM UNC1999 + 2 mM butyrate): synergistically induced
AvBD1 induction, combination with butyrate (AvBD1): synergistically induced, albeit at lower magnitudes
synergy in AvBD9 induction with butyrate (AvBD9): drastic synergy
AvBD10 induction, combination with butyrate (AvBD10): synergistically induced, albeit at lower magnitudes
AvBD4 induction, combination with butyrate (AvBD4): synergistically induced, albeit at lower magnitudes
synergy in luciferase activity with butyrate (AvBD9 gene promoter): marked dose-dependent increase in the synergy

Compound: Nc1ncn([C@@H]2O[C@H](CO)[C@@H](O)[C@H]2O)c(=O)n1 [AZA, 5-azacytidine]
induction of AvBD9 gene expression (AvBD9 mRNA expression; 5 μM compound alone): 3 fold
increase in AvBD9 expression, combination with mocetinostat (AvBD9 mRNA expression): 1,925 fold

Compound: CCCC(=O)[O-].[Na+] [butyrate, Sodium butyrate]
induction of AvBD9 expression (AvBD9 mRNA expression; 2 mM butyrate alone, 24 h (FIG. 4, Panel A)): 27 fold
effect on LPS-induced IL-1β expression (IL-1β; compound alone 24 h, then 10 ng/ml LPS 3 h (FIG. 8, Panel D)): suppressed
activity in inducing gene expression of IL-1β (IL-1β; compound alone (2 mM butyrate or 5 μM BIX01294), without LPS (FIG. 8, Panel D)): no or weak activity
effect on LPS-induced IL-8 expression (IL-8; compound alone 24 h, then 10 ng/ml LPS 3 h (FIG. 8, Panel E)): potentiated
activity in inducing gene expression of IL-8 (IL-8; compound alone (2 mM butyrate or 5 μM BIX01294), without LPS (FIG. 8, Panel E)): no or weak activity

Compound: Nc1ccccc1NC(=O)c1ccc(CNc2nccc(-c3cccnc3)n2)cc1 [mocetinostat]
induction of AvBD9 gene expression (AvBD9 mRNA expression; 2.5 μM mocetinostat alone): 152 fold

activation of the AvBD9 gene promoter (relative luciferase activity) (AvBD9 gene promoter): weak activator
Compound: Cc1cc(Nc2ccc(NC(=O)c3ccc(Nc4ccnc5ccccc45)cc3)cc2)nc(N)n1 [SGI-1027]
induction of AvBD9 gene expression (AvBD9 mRNA expression; 5 μM compound alone): 4 fold
increase in AvBD9 expression, combination with mocetinostat (AvBD9 mRNA expression): 747 fold
additional increase in AvBD9 of the butyrate combination over compound alone (AvBD9 mRNA expression; 10 µM compound + 2 mM butyrate versus 10 µM compound alone): 8 fold
induction of AvBD9 mRNA expression (AvBD9 mRNA expression; 10 μM compound alone, 24 h (FIG. 2, Panel B)): 51 fold
AvBD9 expression augmented (AvBD9 mRNA expression; 10 µM compound alone, 24 h (FIG. 4, Panel C)): 51 fold
AvBD9 induction when combined with butyrate (AvBD9 mRNA expression; 10 µM compound combined with 2 mM butyrate, 24 h (FIG. 4, Panel C)): 411 fold
synergy with butyrate in AvBD9 mRNA expression (AvBD9 mRNA expression): concentration-dependent increase; also recorded: synergize
synergy in luciferase activity with butyrate (AvBD9 gene promoter): no synergy
